According to patent publication US11235001B2, “RUNX inhibitor” (KYOTO UNIVERSITY, priority 2016, dated 2022):
Like-named read-outs stand apart in the source and are kept apart here.

What was measured:
[1] = system: PC-3 cells; test: PI-AnnexinV apoptosis staining, PC-3 cells; type: cell-based, human; settings: PC-3, 3 μM, 48 hours and 72 hours
Protocol: To PC-3 cells, 3 μM Chb-M′ was administered. After 48 hours and 72 hours, the percentage of apoptosis was analyzed by PI-AnnexinV apoptosis staining. As a control, DMSO was administered. As a result, the apoptosis rate was increased depending on the […] of Chb-M′ (FIG. 46).

[2] = system: p53, p21, PUMA, and BAX; test: Western blotting of apoptosis-related factors in lung adenocarcinoma cells; type: cell-based, human; settings: A549 cells and LU99A cells, 1 μM, 24 hours
Protocol: (§1) Cells were washed twice with ice cold phosphate-buffered saline (PBS) and harvested in protein lysis buffer [50 mM Tris (pH 7.4), 100 mM NaCl, 0.1 mM EDTA, 1 mM phenylmethylsulfonyl fluoride, 1 mM β-glycerophosphate, 2.5 mM sodium pyrophosphate, 1 mM Na3VO4, lx protease inhibitor (Roche) and PhosSTOP (Roche)]. Whole cell extracts were separated by SDS-polyacrylamide gel electrophoresis (SDS-PAGE) and electrotransferred onto polyvinylidene difluoride membranes. […] Blots were detected using Chemi-Lumi One Super (nacalai tesque, Inc.) and ChemiDoc™ XRS+ Imager (Bio-Rad Laboratories, Inc.), as recommended by the manufacturers. Protein levels were quantified with Image Lab Software (Bio-Rad Laboratories, Inc.).
To A549 cells and LU99A cells, 1 μM Chb-M′ was administered. After 24 hours, the expression levels of apoptosis-related factors (p53, p21, PUMA, and BAX) were evaluated by the Western blotting method (see the above-described “Immunoblotting”). […]

[3] = system: p53 mutated cells; test: Concomitant use with p53 inducer MIRA-1 in p53 mutated cells; type: cell-based, human; settings: compared with the PRIMA-1 experiments (synergistic inhibition)
Protocol: We examined the effect of concomitant use of the conjugates and a p53 inducer. […] KG1a and HL60 cells are null for p53 (p53null cell lines). MV4-11NR, Kasumi-1 and THP-1 cells harbor mutated p53 (p53mut(+) cell lines).
Further, the same experiments were performed using a p53 inducer MIRA-1 and the same results were obtained. Although the PI polyamide conjugates of the present invention may greatly reduce their potency in p53 mutated cells (cancer cells harboring mutated p53 or no p53), concomitant use with a p53 inducer enables suppression of such p53 mutated cells.

[4] = system: c-kit, phospho-c-Kit, AKT, phosphorylated AKT, Mitf; test: Western blot of KIT signalling, HMC-1.2 mast cells; type: cell-based, human; settings: HMC-1.2, 10 μM, 18 hours
Protocol: as §1
To the LAD2 cell line and the HMC-1.2 cell line, 10 μM Chb-M′ was administered. After culturing the cells for 18 hours, extracts were obtained from the cells, and the protein expression levels of c-kit, phospho-c-Kit, AKT, phosphorylated AKT, Mitf, and GAPDH were analyzed by the Western blot analysis (see the above-described “Immunoblotting”) using different antibodies. […]

[5] = system: MLL-ENL leukemia cells; test: Homing assay of MLL-ENL leukemia cells; type: in vivo, mouse; settings: B6 mice, 320 μg/kg, 6 times over 2 weeks; 24 hours after cell injection
[6] = system: Her2, p-Her2, SOS1, p-ERK, ERK, p-AKT, AKT; test: Western blotting of Her2 signalling in MKN45 gastric cancer cells; type: cell-based, human; settings: 48 hours
[7] = system: ROR1 and ROR2; test: qRT-PCR of ROR1 and ROR2 in DAOY; type: cell-based, human; settings: 1 μM, 6 hours
Protocol: A total RNA was isolated with RNeasy mini kit (Qiagen) and reverse transcribed with Reverse script kit (TOYOBO) to generate cDNA. Real-time quantitative polymerase chain reaction (PCR) was carried out with 7500 Real-Time PCR System (Applied Biosystems) according to the manufacturer's instructions. Results were normalized to GAPDH levels. Relative expression levels were calculated using the 2-ΔΔCt method.
To medulloblastoma cell line DAOY, 1 μM Chb-M′ was administered. After 6 hours, the mRNA levels of cancer promoting factors ROR1 and ROR2, which are important for medulloblastoma, were evaluated by qRT-PCR (see the above-described “Real-time quantitative PCR (qRT-PCR)”). As a control, DMSO was administered. In the figure, the mRNA expression levels of ROR1 and ROR2 are shown as values relative to those in the DMSO-treated group. As evident from FIG. 48, the expressions of ROR family were suppressed by Chb-M′ at transcriptional levels.

[8] = system: MV4-11NR
[9] = system: THP-1; settings: THP-1, p53mut(+); for IC50: 48 hours

## CN(C)CCCNC(=O)c1cc(NC(=O)c2cc(NC(=O)c3cc(NC(=O)c4cc(NC(=O)CCCNC(=O)c5nc(NC(=O)c6nc(NC(=O)c7cc(NC(=O)c8nc(NC(=O)CCNC(=O)CCCc9ccc(N(CCCl)CCCl)cc9)cn8C)cn7C)cn6C)cn5C)cn4C)cn3C)cn2C)cn1C [Chb-M′]
[1]
  Apoptosis rate: increased
[2]
  p53 and p21 and apoptotic factors PUMA and BAX (protein): enhanced
[3]
  Effect of concomitant use with p53 inducer MIRA-1 on cell proliferation: same results
[4]
  Expression levels of c-kit and phospho-c-Kit: suppressed
  pAKT amount of protein: slight decrease
[5]
  Number of MLL-ENL cells in bone marrow vs control group: smaller
  Number of leukemia cells in spleen: increased
[6]; MKN45, 0.1 μM, 1 μM, or 10 μM
  Expression of SOS1 (protein): suppressed
  Phosphorylation of Her2: suppressed
[6]; MKN45, 1 μM
  Expression of Her2 protein: suppressed
  Phosphorylated forms of ERK protein and AKT protein: suppressed
  Total amounts of ERK protein and AKT protein: not changed
[7]
  Expressions of ROR family (ROR1 and ROR2 mRNA): suppressed
[8]; p53mut(+), concomitant use of Chb-M′ and PRIMA-1, Chou-Talalay, CI<1 synergism
  CI (Fa = 0.5): 0.380
[8]; read-out: IC50 (μM) of Chb-M′ in concomitant use with PRIMA-1 (5 μM), p53mut(+), 48 hours, with 5 μM PRIMA-1
  IC50: 0.00103 µM
[8]; read-out: IC50 (μM) of Chb-M′ single agent administration, p53mut(+), 48 hours
  IC50: > 100 µM
[9]; concomitant use of Chb-M′ and PRIMA-1, Chou-Talalay, CI<1 synergism
  CI (Fa = 0.5): 0.249
[9]; read-out: IC50 (μM) of Chb-M′ in concomitant use with PRIMA-1 (5 μM), with 5 μM PRIMA-1
  IC50: 0.5 µM
[9]; read-out: IC50 (μM) of Chb-M′ single agent administration
  IC50: > 100 µM
